Values belong to the compound of their own block, whether it stands above or below them.
Key:
[1] = Compatibility study of each API alone or 1:1 (w/w) with excipients under stressed conditions, impurities by HPLC; format: physicochemical; settings: 60 ± 2 °C/80 ± 5% RH
Experimental: We evaluated the compatibility between APIs and excipients, for which each API in […]® tablets was individually mixed in a 1:1 (w/w) ratio with excipients used in the formulation, as well as with commonly used tablet excipients selected based on their functional roles (e.g., diluents, binders, disintegrants, lubricants, etc.). […] The compatibility study was conducted in a temperature and humidity chamber (Sunil Eyela Co., Seongnam, Korea). Samples were withdrawn at predetermined intervals and analyzed for impurities (%). A HPLC system (Agilent Technologies, Inc. CA, USA) was used for the quantitative analysis of impurities. The column used was Symmetry C8 (100 mm × 4.6 mm, 3.5 μm, Waters Corp., Milford, CT, USA). Mobile phase A consisted of a mixture of phosphate buffer (pH 2.8) and acetonitrile at a ratio of […] prepared in a 1000 mL volumetric flask. The buffer was prepared by adjusting a 10% phosphoric acid solution to pH 2.8, filtered through a 0.45 μm membrane filter (Millipore; Billerica, MA, USA), and degassed before use. Mobile phase B consisted of a phosphate buffer (pH 2.8) and acetonitrile at a ratio of 600:1400 (v/v), which was similarly prepared and degassed before use. The mobile phases were delivered at a flow rate of 1.0 mL/min, the column temperature was maintained at 35 °C, and detection was performed at a wavelength of 250 nm.

[2] = design: method as in PMID 21966165; settings: low solubility and high permeability; cited from earlier work
[3] = hydrochlorothiazide compatibility, 1w
[4] = hydrochlorothiazide compatibility, 2w
[5] = hydrochlorothiazide compatibility, 4w
[6] = hydrochlorothiazide compatibility, Initial
[7] = olmesartan medoxomil compatibility, 1w
[8] = olmesartan medoxomil compatibility, 2w
[9] = olmesartan medoxomil compatibility, 4w
[10] = olmesartan medoxomil compatibility, Initial
[11] = S-amlodipine besylate compatibility, 1w
[12] = S-amlodipine besylate compatibility, 2w
[13] = S-amlodipine besylate compatibility, 4w

- Benzothiadiazine Related Compound A [1, 3]: <LOQ
- Total Impurity [1, 3]: 0.08%
- Unknown Impurity [1, 3]: 0.08%
- Benzothiadiazine Related Compound A [1, 4]: <LOQ
- Total Impurity [1, 4]: 0.08%
- Unknown Impurity [1, 4]: 0.08%
- Benzothiadiazine Related Compound A [1, 5]: <LOQ
- Total Impurity [1, 5]: 0.08%
- Unknown Impurity [1, 5]: 0.08%
- Benzothiadiazine Related Compound A [1, 6]: <LOQ
- Total Impurity [1, 6]: 0.10%
- Unknown Impurity [1, 6]: 0.10%
Structure (SMILES): NS(=O)(=O)c1cc2c(cc1Cl)NCNS2(=O)=O [Hydrochlorothiazide]

- RNH-8276 [1, 7]: <LOQ
- Total Impurity [1, 7]: <LOQ
- Unknown Impurity [1, 7]: <LOQ
- RNH-8276 [1, 8]: <LOQ
- Total Impurity [1, 8]: <LOQ
- Unknown Impurity [1, 8]: <LOQ
- RNH-8276 [1, 9]: <LOQ
- Total Impurity [1, 9]: 0.05%
- Unknown Impurity [1, 9]: 0.05%
- Total Impurity [1, 10]: <LOQ
- Unknown Impurity [1, 10]: <LOQ
Structure (SMILES): CCCc1nc(C(C)(C)O)c(C(=O)OCc2oc(=O)oc2C)n1Cc1ccc(-c2ccccc2-c2nnn[nH]2)cc1 [Olmesartan medoxomil]
- Biopharmaceutics Classification System (BCS) class [2]: Class II

- Amlodipine Related Compound A [1, 11]: <LOQ
- Total Impurity [1, 11]: <LOQ
- Unknown Impurity [1, 11]: <LOQ
- Amlodipine Related Compound A [1, 12]: <LOQ
- Total Impurity [1, 12]: <LOQ
- Unknown Impurity [1, 12]: <LOQ
- Amlodipine Related Compound A [1, 13]: 0.06%
- Total Impurity [1, 13]: 0.30%
- Unknown Impurity [1, 13]: 0.16%
Structure (SMILES): CCOC(=O)C1=C(COCCN)NC(C)=C(C(=O)OC)[C@@H]1c1ccccc1Cl.O.O.O=S(=O)(O)c1ccccc1 [S-amlodipine besylate, S-amlodipine besylate dihydrate]

From paper PMC12473425, “Development and Evaluation of a Modified Fixed-Dose Combination Antihypertensive Tablet Containing S-Amlodipine Besylate: A Bioequivalence and Stability Study” (Pharmaceutics, 2025)
